Results: patent publication US20190125753A1, “COMPOUNDS AND METHODS FOR INCREASING HEMATOPOIESIS” (University of Southern California, priority 2016, published 2019)

Tested on: bone marrow cells
Assay: Brief (4 h) incubation of bone marrow cells, 14 days culture, FACS
Assay type: cell-based, mouse
Protocol: Bone marrow cells were treated with DMSO or YH250 (0.5 μM) for 4 hours, then the compound was removed and the cells cultured in QBSF-58 medium for 14 days with 10 ng/ml of SCF, TPO, Flt3 ligand, and IL-6. At the end of culture, cells were recovered and analyzed for LSK cells with FACS.
In a further study, female CD45.1 mice bone marrow cells were incubated with DMSO, or YH249 (0.5 μM) or YH250 (0.5 μM) for 4 hrs in QBSF-58 media, then 2×10^4 cells were plated in QBSF-58 medium containing SCF, TPO, Flt3 and IL-6 (10 ng/ml for each) for 14 days. Cells were then recovered from plate for FACS analysis. […] Correspondingly, there are higher LSK cells (52%, 60% and 70% respectively for DMSO, YH249 and YH250). From every 10,000 analyzed cells, LSKCD34negt cell numbers are 437, 663 and 2051 for DMSO, YH249 and YH250 treated cells, respectively.

[1] = 0.5 μM 4 hours, 14 days in QBSF-58 with SCF, TPO, Flt3 ligand, IL-6

COc1cccc(CNC(=O)N2C3CN(Cc4cc(Cl)cc(Cl)c4N(C)C)C(=O)[C@H](Cc4ccc(O)cc4)N3C(=O)CN2C)c1OC (some centres unmarked) [YH250]
percentage of LSK cells vs DMSO [1]: significantly higher
percentage of Lineage negative cells vs DMSO [1]: significantly higher
lineage negative cell (0.5 μM 4 hrs, 14 days culture, DMSO 9%): 33%
LSK cells (0.5 μM 4 hrs, 14 days culture, DMSO 52%): 70%
LSKCD34negt cell numbers (from every 10,000 analyzed cells, 0.5 μM 4 hrs, 14 days culture, DMSO 437): 2051
